Measured values taken from patent US20250154180A1, “CRK-LIKE (CRKL) ADAPTOR PROTEIN INHIBITORS AND METHODS OF MAKING AND USING THE SAME” (Rutgers, The State University of New Jersey, priority 2022, published 2025).

What was measured:
CrkL = CrkL (Homo sapiens, UniProt P46109); format: biochemical
Text: Single-molecule Fluorescence Resonance Energy Transfer (smFRET)—Single-molecule Fluorescence Resonance Energy Transfer (smFRET) was applied to monitor conformations of single molecules. CrkL has two cysteines (a relatively rare amino acid), one in its SH2 and another in SH3C domains. CrkL was mixed with a mixture of equal amounts of Alexa555-maleimide and Alexa647-maleimide (Invitrogen, USA) (10× over protein concentration) to randomly label the two cysteines. The labeled protein was purified from an unreacted dye by gel filtration. Molecules with exactly one donor and acceptor are identified in single-molecule data analysis and used for further analysis. […] The FRET change between non-phosphorylated CrkL and phosphorylated CrkL was measured. The dye-labeled protein was used in in vitro kinase assays with different drugs treatments as described above. smFRET measurements were performed with a prism-type total internal refection microscope (TIRF) where FRET efficiency is calculated from measured donor and acceptor intensities (Id and Ia, respectively) by FRET=Ia/(Id+Ia), as described previously. To surface immobilize 6×His tagged CrkL, the protein was added to the biotinylated 6×His antibody (Thermo Scientific Cat #: MA1-80087) bound to streptavidin, which was adsorbed to a quartz slide. A lipid bilayer was used to passivate the quartz surface. Phosphorylation was performed on the immobilized Crk in situ.
In intramolecular smFRET, non-radiative energy transfer occurs when two fluorophores attached to different parts of one molecule move close together. […] A cysteine-maleimide-based chemistry was used to label both CrkL and mutant (non-phosphorylatable) CrkL-Y207F. CrkL has a cysteine (a relatively rare amino acid) in its SH2 (labeled with AlexaFluor555) and SH3C (labeled with AlexaFluor647). […] Western Blot (WB) and immunoprecipitation (IP) was used to verify that labeled proteins retain the same gross functional properties as wild-type CrkL (e.g., are phosphorylatable and capable of binding SH2 and SH3 ligands). Briefly, site-specific labeled CrkL was mixed with Ab1 in the presence of Mg^2+ and ATP. A single AlphaScreen-identified candidate inhibitor was then added per assay.

[1] = test system: TM00089 TNBC patient-derived tumor; assay: TNBC patient-derived xenograft (PDX) TM00089 model; format: in vivo, mice
Text: For the patient-derived xenograft (PDX) model, a cohort of mice engrafted with the TNBC tumor model #TM00089-Breast-Tumor Markers: TNBC ER−(estrogen receptor-negative)/PR—(progesterone receptor-negative)/HER2—(human epidermal growth factor receptor two negative), BRCA1 V757fs (4 to 6-weeks-old females) were obtained from Jackson Laboratories (Bar Harbor, ME). PDX models were generated by surgically engrafting tumor cells into the mammary fat pad of NSG™ (nonobese diabetic, severe combined immunodeficiency, interleukin-2 receptor gamma chain-null) mice.
To determine inhibition efficacy in vivo of Pomiferin in the TNBC clinical patient tumor, the therapeutic efficacy of Pomiferin in a patient-derived tumor xenograft mouse from the Jackson Laboratory PDX Live™ library was evaluated. The TM00089 breast invasive ductal carcinoma was selected, characterized as TNBC ER^−/PR^−/HER2^−, BRCA1^V757fs since TNBC tumors with BRCA1 mutations are generally the most aggressive and have the worst prognosis within the first five years after diagnosis compared to other types of breast cancers.

[2] = test system: pCrkL in MDA-MB-231-LUC cells; assay: Flow cytometry of intracellular pCrkL/CrkL, MDA-MB-231-LUC; format: cell-based; conditions: three M Pomiferin for six days
Text: The cells were labeled with total CrkL or phosphor-CrkL by Alexa Fluor 647 (AF-647) and stained with secondary antibodies conjugated with AF-647 as staining control. […] The star symbol indicates the significance of vehicle vs. Pomiferin of the indicated concentration. *p<0.05, **p<0.005, ***p<0.0005. Data represent mean±SEM, n=4.
The intracellular pCrkL level from breast cancer cell lines between Pomiferin-treated and vehicle control groups was examined.

MDA-MB-468 cells = assay: Annexin V/PI apoptosis, MDA-MB-468; format: cell-based; conditions: 10 uM, 24 hours
Protocol: Annexin V/PI Staining—Experimental cells were collected, washed with 1×PBS, resuspended in the binding buffer, and stained with an Annexin V-FITC assay Kit (Millipore Sigma). The cells were incubated with 50 μg/ml Annexin V in 1× binding buffer at room temperature for 15 minutes, then 10 μg/ml propidium iodide for another 15 minutes and analyzed by flow cytometry (EPICS XL). Annexin V-positive/PI-negative cells were considered early apoptotic, cells with both Annexin V and PI-positive to be late apoptotic, and Annexin V negative but PI-positive to be “necrotic.” The percent of apoptosis was calculated as the sum of the percentages of both early and late apoptotic cells.
To figure out the features of cytotoxic effects of Pomiferin on breast cancer cells. Pomiferin-treated breast cancer cells were stained with an Annexin V/PI kit and measured them with Flow Cytometry.

[3] = test system: pCrkL, P-ERK1/2, pJNK, BIM in MDA-231 and MDA-468 cells; assay: Western blotting of pCrkL and downstream proteins, breast cancer cells; format: cell-based
Protocol: Western blotting—According to the company's protocol (Thermo Scientific, Waltham, MA). Western blotting was performed using 20 μg of total cell extracts. Briefly, transferred membranes were incubated with primary antibodies for […] according to the sensitivity of each antibody, followed by HRP-linked secondary antibody for 1 hour. Each membrane was stripped and re-probed for b-actin, which was used as an internal loading control. The protein bands were visualized using a chemiluminescence detection system (Thermo Scientific). The relative optical densities of each band were quantitated and indicated numerically below the bands in each Western blot.
To investigate the molecular mechanisms of Pomiferin-induced apoptosis in breast cancer cells. […] Cell proliferation was first determined by MTT assay as confirmation. […] CrkL is known to mediate the activation of both Raf/ERK and PI3K pathways. So, proteins that relate to these two pathways were utilized.
The Integrated Density Values (IDV) of each band were measured and shown under each blot. […] Inhibition of pCrkL breaks the balance of cell proliferation and death in triple-negative breast cancer cells by regulating these signaling transduction pathways (FIG. 15). The different expression of these proteins in TNBC vs. normal immune cells makes Pomiferin and compounds disclosed herein a candidate for cancer therapy.

Sequence of CrkL (P46109 whole entry, the tested form may be a part): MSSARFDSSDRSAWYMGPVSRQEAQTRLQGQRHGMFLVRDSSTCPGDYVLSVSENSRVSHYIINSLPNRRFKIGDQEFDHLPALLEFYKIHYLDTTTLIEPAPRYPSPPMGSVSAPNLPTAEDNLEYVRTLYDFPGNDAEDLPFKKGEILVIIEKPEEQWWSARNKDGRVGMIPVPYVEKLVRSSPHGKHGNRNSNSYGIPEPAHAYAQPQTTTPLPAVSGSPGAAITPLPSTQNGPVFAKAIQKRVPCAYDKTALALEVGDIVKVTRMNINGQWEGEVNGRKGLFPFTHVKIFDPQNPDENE

CC(C)=CCc1c2c(c3occ(-c4ccc(O)c(O)c4)c(=O)c3c1O)C=CC(C)(C)O2 [Pomiferin, 3′,4′,5-Trihydroxy-6″,6″-dimethyl-6-(3-methylbut-2-en-1-yl)-6″H-pyrano[2″,3″:7,8]isoflavone]
inhibition of the higher FRET caused by Ab1 (pCrkL) (CrkL; CrkL + Ab1, Mg2+ and ATP): 55%
FRET signal (CrkL; CrkL about 0.4, CrkL+Ab1 about 0.6): 0.5
tumor growth ([1]; 5.0 μg/g Pomiferin vs vehicle): significantly more inhibited
median survival, fold longer than vehicle control ([1]; Pomiferin 5 μg/g): 1.4 fold
median survival ([1]; Pomiferin 5 μg/g, vehicle 39 days): 53 days
body weights ([1]; vs vehicle, during drug treatment period): not significantly different
total CrkL expression [2]: not many differences in total CrkL expression
intracellular pCrkL level ([2]; vs vehicle): reduced the intracellular pCrkL level
percentage of apoptotic cells (MDA-MB-468 cells): significantly increased
P-ERK1/2 levels (Western blotting) ([3]; NC5 1, 5, 10 uM, 24 hours): reduces P-ERK1/2 levels
pCrkL levels (Western blotting) ([3]; NC5 1, 5, 10 uM, 24 hours): dramatically inhibited
BIM levels (Western blotting) ([3]; NC5, 24 hours): dramatically increased
pJNK levels (Western blotting) ([3]; NC5, 24 hours): dramatically increased
